Values after ≈ are worked out from the molar mass of the structure shown.

Series [1] in a line: Solubility test according to surfactant. It is filed as physicochemical. The settings on record: for solubility according to surfactants (in words): in PEG 6 glyceryl caprylate/caprate and PEG 8 caprylic/capric glyceride; for solubility at 24 h: organic solvent or mixture, thermodynamic from solid.
Series [2] can be described thus: Solubility test in various oils. Particulars: for solubility at 24 h: oil or lipid, thermodynamic from solid; for solubility at 24 h / Solubility of Tadalafil: room temperature, 24 hours of stirring. It is filed as physicochemical. The procedure:
Dutasteride and tadalafil were measured for solubility in various oils comprising soybean oil, castor oil, polyoxyl 6 apricot kernel oil, propyleneglycol monolaurate, propyleneglycol monocaprylate, glyceryl caprylate/caprate. In a 10-mL vial, 3 mL of an oil was stirred at room temperature with a magnetic bar during which about 100 mg of the main ingredient was added, followed by stirring at 500 rpm or higher. After 24 hours of stirring, centrifugation was carried out and the supernatant thus formed was taken and subjected to liquid chromatography to quantitate the main ingredient dissolved in the oil phase.

With `C[C@]12C=CC(=O)N[C@@H]1CC[C@@H]1[C@@H]2CC[C@]2(C)[C@@H](C(=O)Nc3cc(C(F)(F)F)ccc3C(F)(F)F)CC[C@@H]12` [Dutasteride, 17β-N-(2,5-bis(trifluoromethyl))phenylcarbomoyl-4-aza-5α-androst-1-en-3-one], the “solubility according to surfactants (in words)” value in series [1] is “high solubility”. Moreover, the solubility (as a rule, the concentration that dissolves in the medium under given conditions) at 24 h in series [1] (in PEG 6 glyceryl carpylate/caprate, read-out: Dutasteride Solubility) came out at 3550 µg/mL (≈ 6.72 mM); in series [1] (in PEG 8 caprylic/capric glyceride, read-out: Dutasteride Solubility), 3860 µg/mL (≈ 7.3 mM); in series [1] (in PEG 35 castor oil, read-out: Dutasteride Solubility) it was 1990 µg/mL (≈ 3.77 mM); in series [1] (in Poloxamer 124, read-out: Dutasteride Solubility), 1120 µg/mL (≈ 2.12 mM); in series [1] (in Polysorbate 60, read-out: Dutasteride Solubility) it was 1770 µg/mL (≈ 3.35 mM); in series [1] (in Polysorbate 80, read-out: Dutasteride Solubility), 1360 µg/mL (≈ 2.57 mM). In addition, the solubility at 24 h in series [2] (in Castor oil, read-out: Solubility of Dutasteride) is 1500 µg/mL (≈ 2.84 mM); in series [2] (in Glyceryl caprylate/caprate, read-out: Solubility of Dutasteride), 14300 µg/mL (≈ 27.1 mM); in series [2] (in Polyoxyl 6 apricot kernel oil, read-out: Solubility of Dutasteride), 2550 µg/mL (≈ 4.82 mM); in series [2] (in Propylene glycol monocaprylate, read-out: Solubility of Dutasteride) it was 26300 µg/mL (≈ 49.7 mM).

As for `CN1CC(=O)N2[C@H](c3ccc4c(c3)OCO4)c3[nH]c4ccccc4c3C[C@@H]2C1=O` [Tadalafil, 6R-trans-6-(1,3-benzodioxol-5-yl)-2,3,6,7,12,12a-hexahydro-2-methyl-pyrazino [1′,2′:1,6]pyrido[3,4-b]indole-1,4-dione], in series [1], the “solubility according to surfactants (in words)” value is “high solubility”. Further, the solubility at 24 h in series [1] (in PEG 6 glyceryl carpylate/caprate, read-out: Tadalafil Solubility) worked out at 9130 µg/mL (≈ 23.4 mM); in series [1] (in PEG 8 caprylic/capric glyceride, read-out: Tadalafil Solubility) it was 8810 µg/mL (≈ 22.6 mM); in series [1] (in PEG 35 castor oil, read-out: Tadalafil Solubility), 8100 µg/mL (≈ 20.8 mM); in series [1] (in Poloxamer 124, read-out: Tadalafil Solubility), 6230 µg/mL (≈ 16 mM); in series [1] (in Polysorbate 60, read-out: Tadalafil Solubility), 10700 µg/mL (≈ 27.6 mM); in series [1] (in Polysorbate 80, read-out: Tadalafil Solubility) it was 9650 µg/mL (≈ 24.8 mM). Besides, the solubility at 24 h in series [2] (in Propylene glycol monocaprylate, read-out: Solubility of Tadalafil) was 4610 µg/mL (≈ 11.8 mM). Further, the “Solubility of Tadalafil” value in series [2] (in Glyceryl caprylate/caprate) is on record as 4.13 mg/mL; in series [2] (in Polyoxyl 6 apricot kernel oil), 1.12 mg/mL. Also, the “fold greater solubility than the other oils” value in series [2] (in glyceryl caprylate/caprate and propylene glycol monocaprylate versus castor oil, soybean oil, polyoxyl 6 apricot kernel oil) is recorded as ≥ 4 fold.

Source of the values: patent US20190224195A1, “Oral Capsule Composite Formulation of Dutasteride and Tadalafil” (Yuyu Pharma, Inc., priority 2016, published 2019).
